Values after ≈ are worked out from the molar mass of the structure shown. Where two headings read alike, the source gives them in different places.
Columns and labels:
NFκB = assay: NFκB-INHIBITION TEST (NF-κB gene reporter, TNFα-stimulated FB293 cells); type: cell-based, human; conditions: for NF-κB Gene Reporter Activation (Luminescence, L): 24 h; for NF-κB inhibition (in words): summary of Table 1; for NF-KB Activity (10 ug/ml): Tables 3a and 3b
Method: As used herein, “NFκB-inhibitor” means a compound that inhibits the cell transcription factor nuclear kappa-B (NFκB). […] The compound need not provide the recited Percent NFκB Inhibition at all concentrations from 1 microgram per milliliter to 100 micrograms per milliliter, but provides the recited Percent NFκB Inhibition at least one concentration in this range.
The NFκB-INHIBITION TEST is conducted in the following manner. FB293 cells, a stable transfected human epithelial cell line containing the gene reporter for NF-κB are used. They may be obtained from, e.g., Panomics (Fremont, Calif.). FB293 are plated at a density of 5×10^4 cells/mL in a suitable medium, e.g., Dulbecco's modified Eagle's medium (DMEM) supplemented with 10% fetal bovine serum (Invitrogen, San Diego, Calif.). The FB293 cells are stimulated with 100 ng/mL of Tumor Necrosis Factor-α (TNFα, available from Sigma-Aldrich of St Louis, Mo.) in the presence of the test sample. Separately, a control sample is tested wherein no test sample is applied. Following a 24-hour incubation at 37° C. with 5% CO2, cells are lysed with 40 μl of reporter lysis buffer (Promega, Madison, Wis.). A 20-μl aliquot of the lysate is assayed using a luciferase assay kit (Promega) and counted for 10 s in a Lmax luminometer (Molecular Devices, Sunnyvale, Calif.) with the data represented as the relative light unit/second. Percent NFκB Inhibition of the test sample is calculated as: NFκB Inhibition=[1−(Lsample/Lcontrol)]*100 where Lsample is the luminescence of the sample and Lcontrol is the luminescence of the control.
The NFκB-INHIBITION TEST described above was performed on test samples of Bay 11-7082 (Sigma-Aldrich, St. Louis, Mo.), Tetrahydrocurcuminoids CG (Sabinsa Corporation, Piscataway, N.J.), as well as various concentrations of 4-hexylresorcinol.
The NFκB-INHIBITION TEST described above was performed on a series of substituted resorcinols each having a concentration of 10 μg/ml.

IL-8 = IL-8 ASSAY (IL-8 cytokine release in KB cells); type: cell-based, human
Method: (§1) The IL-1α ASSAY was conducted as follows. KB cells were obtained from ATCC (ATCC#CCL-17, Manassas, Va.) and were plated in 96-well tissue culture treated plates at a density of 5000 cells/well in Dulbecco's modified Eagle's medium (DMEM) supplemented with 10% fetal bovine serum (Invitrogen Corp., San Diego, Calif.). After 48 hours, cells were treated with the agents described below at indicated concentrations for 24 hours, following which supernatants were collected and analyzed for IL-1α cytokine release using commercially available kits (Millipore Corp., Billerica, Mass.).
An IL-8 ASSAY was performed on a series of compositions using the method described in Example 5, except that the cytokine analyzed for was IL-8. Percent reduction in IL-8 was calculated for each sample. For samples containing a combination of an NF-κB inhibitor and an anti-inflammatory compound, the percent reduction in IL-8 relative to the percent reduction in IL-8 for the corresponding dose of anti-inflammatory compound is reported.

IL-1α = IL-1α ASSAY (IL-1α cytokine release in KB cells); type: cell-based, human; conditions: for Increase in IL-1α over untreated control (normalized): normalized to 4-hexylresorcinol 20 μg/mL
Method: An IL-1α ASSAY was performed on a plurality of agents to investigate the release of the pro-inflammatory mediator, IL-1α cytokine, in human epithelial cells.
as §1
Further IL-1α ASSAYS as described in Example 5 were performed. For ease of comparison, reported increases in IL-1α for 4-hexylresorcinol, phloretin, and combinations thereof were normalized to 4-hexylresorcinol (20 μg/mL, Comparative Example 2). Reported increases in IL-1α for tetrahydrocurcuminoids, feverfew, and combinations thereof were normalized to tetrahydrocurcuminoids (20 μg/mL, Comparative Example 3).
Further IL-1α ASSAYS as described in Example 5 were performed. For ease of comparison, reported increases in IL-1α were normalized to 4-hexylresorcinol (20 μg/mL, Comparative Example 2).

Interleukin-2 = assay: ANTI-INFLAMMATORY ASSAY (cytokine production by PHA-stimulated human lymphocytes); type: cell-based; conditions: PHA 10 μg/mL stimulated human leukocytes, 48 h
Method: The ANTI-INFLAMMATORY ASSAY assesses the ability of an agent to reduce the production of cytokines by human lymphocytes stimulated with the T-cell receptor (TCR) activating agent phytohaemagglutinin (PHA), and is conducted in the following manner. Human leukocytes are collected from a healthy adult […] via leukopheresis, and adjusted to a density of 1×10^6 cells/mL in serum free lymphocyte growth medium (ExVivo-15, Biowhittaker, Walkersville, Md.). PBLs are stimulated with 10 μg/mL PHA in the presence or absence of test samples following published methods (Hamamoto Y., et al. Exp Dermatol 2:231-235, 1993). Following a 48-hour incubation at 37° C. with 5% CO2, the supernatant is removed and evaluated for cytokine content using commercially available multiplex cytokine detection kit.

[1] = Homo sapiens, 10 μg/ml, series of substituted resorcinols, Table 2, read-out: Percent NF-κB Inhibition
[2] = Homo sapiens, read-out: Percent NF-κB Inhibition
[3] = Homo sapiens, read-out: Percent NFκB Inhibition

CCCCCCCCCCCC1c2cc(c(O)cc2O)C(CCCCCCCCCCC)c2cc(c(O)cc2O)C(CCCCCCCCCCC)c2cc(c(O)cc2O)C(CCCCCCCCCCC)c2cc1c(O)cc2O (stereo not shown) [C-Undecylcalix[4]-resorcinarene]
Percent NF-κB Inhibition (NFκB; 10 μg/ml, series of substituted resorcinols, Table 2): 4.87%

O=C(O)/C=C/c1ccc(O)cc1O [2,4-DIHYDROXYCINNAMIC Acid]
inhibition at 10 µg/mL (NFκB; [1]): -1.7%

CCCCCCCCc1ccc(O)cc1O [4-Octylresorcinol]
inhibition at 10 µg/mL (NFκB; [1]): 99.5%

CCC(=O)c1ccc(O)cc1O [2′,4′-Dihydroxypropiophenone]
inhibition at 10 µg/mL (NFκB; [1]): -0.7%

CC1CCCC(=O)CCCCCc2cc(O)cc(O)c2C(=O)O1 (stereo not shown) [Zearalanone]
inhibition at 10 µg/mL (NFκB; [2]): 51%

COc1cccc(O)c1 [3-Methoxyphenol, reference compound]
inhibition at 10 µg/mL (NFκB; [1]): 0%

COc1cccc(OC)c1 [1,3-Dimethoxybenzene, reference compound]
inhibition at 10 µg/mL (NFκB; [1]): -1.7%

CCCCCCCCCCCCc1ccc(O)cc1O [4-Dodecylresorcinol]
inhibition at 10 µg/mL (NFκB; [1]): 20.9%

CCCCCCc1ccc(O)cc1O [4-Hexylresorcinol]
NF-κB Gene Reporter Activation (Luminescence, L) (NFκB; 1 μg/ml, TNFα 100 ng/ml stimulated FB293 cells): 106.1 ± 1.9 | NF-κB Gene Reporter Activation (Luminescence, L) (NFκB; 5 μg/ml, TNFα 100 ng/ml stimulated FB293 cells): 55.1 ± 1.7 | NF-κB Gene Reporter Activation (Luminescence, L) (NFκB; 10 μg/ml, TNFα 100 ng/ml stimulated FB293 cells): 29.3 ± 9.2 | NF-κB Gene Reporter Activation (Luminescence, L) (NFκB; 50 μg/ml, TNFα 100 ng/ml stimulated FB293 cells, relative light unit/second per method): 9.3 ± 0.9 | inhibition at 10 µg/mL (NFκB; [2]): 92.4% | inhibition at 1 µg/mL (NFκB; [3]): 1.9% | inhibition at 5 µg/mL (NFκB; [3]): 50.9% | inhibition at 10 µg/mL (NFκB; [3]): 72.9% | inhibition at 50 µg/mL (NFκB; [3]): 91.4% | NF-κB inhibition (in words) (NFκB): substantial reduction in NFκB activation | Mean of IL-8 Release (IL-8; single agent 10 μg/mL, untreated 84.46, Table 9): 73.23 pg/mL | Mean of IL-8 Release (IL-8; single agent 20 μg/mL, untreated 46.05, Table 8): 14.58 pg/mL | Mean of IL-8 Release (IL-8; single agent 20 μg/mL, untreated 84.46, Table 9): 27.05 pg/mL | Mean of IL-1α Release (IL-1α; 20 μg/mL, 24 h, KB cells, untreated 0.72): 21.34 pg/mL | Increase in IL-1α over untreated control (normalized) (IL-1α; single agent 20 μg/mL, Table 6): 100 | Increase in IL-1α over untreated control (normalized) (IL-1α; single agent 20 μg/mL, Table 7): 100 | release of cytokine IL-1α (in words) (IL-1α; summary of Table 5): can increase the release of cytokine IL-1α

CCCCCC(=O)c1ccc(O)cc1O [4-Caproylresorcinol]
inhibition at 10 µg/mL (NFκB; [1]): 10.2%

O=C(CCc1ccc(O)cc1)c1c(O)cc(O)cc1O [Phloretin]
IC50 (Interleukin-2; Leukocyte, read-out: Anti-Inflammatory Activity (IC50 ug/ml)): 19.9 µg/mL (≈ 72.6 µM) | NF-KB Activity (10 ug/ml) (NFκB): 0% | Increase in IL-1α over untreated control (normalized) (IL-1α; single agent 10 μg/mL, Table 6): 3.82 | Increase in IL-1α over untreated control (normalized) (IL-1α; single agent 50 μg/mL, Table 6): 2.39 | Increase in IL-1α over untreated control (normalized) (IL-1α; single agent 100 μg/mL, Table 6): 3.34

Oc1ccc(CCc2ccccc2)c(O)c1 [Phenethylresorinol]
inhibition at 10 µg/mL (NFκB; [1]): 31.8%

C[C@H]1CCC[C@@H](O)CCC/C=C/c2cc(O)cc(O)c2C(=O)O1 [β-Zearalenol]
inhibition at 10 µg/mL (NFκB; [2]): 87.1%

O=Nc1ccc(O)c(N=O)c1O [2,4-Dinitrosorcinol]
inhibition at 10 µg/mL (NFκB; [2]): 51.8%

Cc1ccc(S(=O)(=O)/C=C/C#N)cc1 [Bay 11-7082, (E)-3-(4-methylphenylsulfonyl)-2-propenenitrile, reference compound]
NF-κB Gene Reporter Activation (Luminescence, L) (NFκB; 25 uM, FB293 cells): 11.3 ± 5.6 | inhibition at 25 µM (NFκB; Homo sapiens, 25 uM, Table 1, read-out: Percent NFκB Inhibition): 89.5% | NF-κB inhibition (in words) (NFκB): strong NF-κB inhibition

Oc1ccc(Cl)c(O)c1 [4-Chloroesorcinol]
inhibition at 10 µg/mL (NFκB; [1]): 51.6%

Madecassoside [reference compound]
Anti-Inflammatory Activity (IC50 ug/ml) (Interleukin-2): 77.3 µg/mL | NF-KB Activity (10 ug/ml) (NFκB): 0% | Increase in IL-1α over untreated control (normalized) (IL-1α; single agent 10 μg/mL, Table 7): 43.02 | Increase in IL-1α over untreated control (normalized) (IL-1α; single agent 50 μg/mL, Table 7): 41.59 | Increase in IL-1α over untreated control (normalized) (IL-1α; single agent 100 μg/mL, Table 7): 44.24

C=CC(C)(C)c1cc(/C=C/C(=O)c2ccc(O)cc2)c(OC)cc1O [Licochalcone]
Anti-Inflammatory Activity (IC50 ug/ml) (Interleukin-2): 54.1 µg/mL | NF-KB Activity (10 ug/ml) (NFκB): 0%

CC1CCCC(O)CCCCCc2cc(O)cc(O)c2C(=O)O1 (stereo not drawn) [β-Zearalanol]
inhibition at 10 µg/mL (NFκB; [2]): 76.6%

From patent publication US8318217B2, “Compositions comprising an anti-inflammatory blend” (Johnson & Johnson Consumer Companies, Inc., priority 2009, dated 2012)
